From PubChem BioAssay AID588661 (The Scripps Research Institute Molecular Screening Center, 2011)
Active and inactive are the calls of the source.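 Rule for the calls: active = KLF5 protein level in colon cancer cells lowered or raised by 30% or more versus solvent-only cells; inactive = the rest.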

Legend:
[1] = target: Krueppel-like factor 5 (Homo sapiens) (UniProt Q13887); assay: change in KLF5 protein levels, late-stage follow-up, counter-screen for KLF5 inhibitor project, western blot, chemiluminescence, SW620 colorectal cells (AID 588661); settings: SW620 cells, KLF5 protein western blot, 24 h; at 10 µM; stronger effect = higher value
Sequence of Krueppel-like factor 5 (Homo sapiens) (Q13887 whole entry, looked up): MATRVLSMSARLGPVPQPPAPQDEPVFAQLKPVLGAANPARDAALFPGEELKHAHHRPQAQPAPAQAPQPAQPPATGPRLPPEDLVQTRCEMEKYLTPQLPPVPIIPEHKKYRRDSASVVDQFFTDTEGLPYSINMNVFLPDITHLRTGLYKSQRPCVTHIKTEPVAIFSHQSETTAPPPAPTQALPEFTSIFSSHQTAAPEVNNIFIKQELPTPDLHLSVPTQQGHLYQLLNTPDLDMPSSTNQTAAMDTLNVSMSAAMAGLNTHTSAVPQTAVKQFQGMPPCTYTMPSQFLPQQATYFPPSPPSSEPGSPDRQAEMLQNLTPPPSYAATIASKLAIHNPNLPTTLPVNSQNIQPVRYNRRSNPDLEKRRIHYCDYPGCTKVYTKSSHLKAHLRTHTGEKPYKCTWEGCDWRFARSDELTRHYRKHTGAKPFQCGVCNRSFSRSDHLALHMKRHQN

[2] = system: SW620 cells, KLF5 protein western blot, 24 h; assay: as above; settings: measured here: KLF5 protein fold change vs DMSO; at 10 µM

inhibition [1]: 7.48% (inactive)
SMILES: CN(C(=O)COC(=O)/C=C/c1cccc([N+](=O)[O-])c1)C1CCS(=O)(=O)C1 (configuration not stated)
signed fold change vs DMSO (negative = decrease) [2]: -1.08
